Where “and” joins values, the source holds several entries; their conditions need not be identical. Equal values may be shown once. Read-outs that look alike come from different tables or passages of the source.
How the values were obtained:
Fadu cells = test: CellTiter-Glo luminescent cell viability assay, Fadu
PANC-1 cells = test: CellTiter-Glo luminescent cell viability assay, PANC-1
[1] = CellTiter-Glo luminescent cell viability assay, primary fibroblasts; conditions: human, primary skin fibroblasts (non-tumorous), Primer fibroblast Cell viability (% of controll), 72 h, dose–response, individual replicates
[2] = test system: non-tumorous primary fibroblast cells; test: as above; conditions: for Primer fibroblast Cell viability (% of controll): dose–response, individual replicates; for IC50: Homo sapiens, Fibroblast
[3] = 0.7 μM, 72 h, dose–response, individual replicates
[4] = 1 μM, 72 h, dose–response, individual replicates
[5] = 1.5 μM, 72 h, dose–response, individual replicates
[6] = 2.3 μM, 72 h, dose–response, individual replicates
[7] = 3.4 μM, 72 h, dose–response, individual replicates
[8] = 5.1 μM, 72 h, dose–response, individual replicates
[9] = 7.7 μM, 72 h, dose–response, individual replicates
[10] = 17.3 μM, 72 h, dose–response, individual replicates
[11] = 26 μM, 72 h, dose–response, individual replicates

With CNCC#Cc1cccc(CN2C(=O)C3=C(CCN(Cc4ccc(-n5cc(-c6cccc(F)c6)nn5)cc4)C3)N3CCN=C23)c1 [43a] the “Fadu Cell viability (% of controll)” value (Fadu cells; [3]) was 109 % of controll, the “Fadu Cell viability (% of controll)” value (Fadu cells; [4]) was 109 % of controll and the “Fadu Cell viability (% of controll)” value (Fadu cells; [5]) was 104 % of controll and 103 % of controll. The “Fadu Cell viability (% of controll)” value (Fadu cells; [6]) was 80 % of controll and 88 % of controll, the “Fadu Cell viability (% of controll)” value (Fadu cells; [7]) was 71 % of controll and 29 % of controll and 38 % of controll and the “Fadu Cell viability (% of controll)” value (Fadu cells; [8]) was 5 % of controll and 0 % of controll. The “Fadu Cell viability (% of controll)” value (Fadu cells; [9]) was 0 % of controll, the “Fadu Cell viability (% of controll)” value (Fadu cells; [10]) was 0 % of controll and the “Fadu Cell viability (% of controll)” value (Fadu cells; [11]) was 0 % of controll. It also gave a viability at 0.7 µM (Fadu cells; Homo sapiens, FaDu, 72 h, read-out: Fadu Cell viability (% of controll), 0.7 μM, 72 h, dose–response, individual replicates) of 108%, a viability at 1 µM (Fadu cells; Homo sapiens, FaDu, 72 h, read-out: Fadu Cell viability (% of controll), 1 μM, 72 h, dose–response, individual replicates) of 112% and a viability at 1.5 µM (Fadu cells; Homo sapiens, FaDu, 72 h, read-out: Fadu Cell viability (% of controll), 1.5 μM, 72 h, dose–response, individual replicates) of 103%. It also gave a viability at 2.3 µM (Fadu cells; Homo sapiens, FaDu, 72 h, read-out: Fadu Cell viability (% of controll), 2.3 μM, 72 h, dose–response, individual replicates) of 95%, a viability at 7.7 µM (Fadu cells; Homo sapiens, FaDu, 72 h, read-out: Fadu Cell viability (% of controll), 7.7 μM, 72 h, dose–response, individual replicates) of 0% and a viability at 17.3 µM (Fadu cells; Homo sapiens, FaDu, 72 h, read-out: Fadu Cell viability (% of controll), 17.3 μM, 72 h, dose–response, individual replicates) of 0%. The viability at 26 µM (Fadu cells; Homo sapiens, FaDu, 72 h, read-out: Fadu Cell viability (% of controll), 26 μM, 72 h, dose–response, individual replicates) was 0%, the IC50 (Fadu cells; Homo sapiens, FaDu, 72 h, read-out: IC50 Value ± SEM Fadu, 72 h treatment, best-fit values, n = 3) was 3.2 ± 0.1 µM and the IC50 (Fadu cells; Homo sapiens, FaDu, read-out: Fadu IC50 values, Mean, mean of independently fitted replicate IC50 values (Supplement S.6)) was 3.18 µM. The “Selectivity Index (SI) Fibroblast/Fadu” value (Fadu cells; ratio of mean best-fit IC50 for primary fibroblasts and best-fit IC50 for Fadu) was 1.0, the “PANC-1 Cell viability (% of controll)” value (PANC-1 cells; [3]) was 108 % of controll and 111 % of controll and the “PANC-1 Cell viability (% of controll)” value (PANC-1 cells; [4]) was 112 % of controll and 115 % of controll. For the same molecule, the “PANC-1 Cell viability (% of controll)” value (PANC-1 cells; [5]) was 102 % of controll and 112 % of controll, the “PANC-1 Cell viability (% of controll)” value (PANC-1 cells; [6]) was 93 % of controll and 84 % of controll and 107 % of controll and the “PANC-1 Cell viability (% of controll)” value (PANC-1 cells; [7]) was 0 % of controll. For the same molecule, the “PANC-1 Cell viability (% of controll)” value (PANC-1 cells; [8]) was 0 % of controll, the “PANC-1 Cell viability (% of controll)” value (PANC-1 cells; [9]) was 0 % of controll and the “PANC-1 Cell viability (% of controll)” value (PANC-1 cells; [10]) was 0 % of controll. The “PANC-1 Cell viability (% of controll)” value (PANC-1 cells; [11]) was 0 % of controll, the IC50 (PANC-1 cells; Homo sapiens, PANC-1, 72 h, read-out: IC50 Value ± SEM PANC-1, 72 h treatment, best-fit values, n = 3) was 2.5 ± 0.94 µM and the viability at 0.7 µM (PANC-1 cells; Homo sapiens, PANC-1, 72 h, read-out: PANC-1 Cell viability (% of controll), 0.7 μM, 72 h, dose–response, individual replicates) was 114%. The viability at 1 µM (PANC-1 cells; Homo sapiens, PANC-1, 72 h, read-out: PANC-1 Cell viability (% of controll), 1 μM, 72 h, dose–response, individual replicates) was 110%, the viability at 1.5 µM (PANC-1 cells; Homo sapiens, PANC-1, 72 h, read-out: PANC-1 Cell viability (% of controll), 1.5 μM, 72 h, dose–response, individual replicates) was 102% and the viability at 3.4 µM (PANC-1 cells; Homo sapiens, PANC-1, 72 h, read-out: PANC-1 Cell viability (% of controll), 3.4 μM, 72 h, dose–response, individual replicates) was 0%. For the same molecule, the viability at 5.1 µM (PANC-1 cells; Homo sapiens, PANC-1, 72 h, read-out: PANC-1 Cell viability (% of controll), 5.1 μM, 72 h, dose–response, individual replicates) was 0%, the viability at 7.7 µM (PANC-1 cells; Homo sapiens, PANC-1, 72 h, read-out: PANC-1 Cell viability (% of controll), 7.7 μM, 72 h, dose–response, individual replicates) was 0% and the viability at 17.3 µM (PANC-1 cells; Homo sapiens, PANC-1, 72 h, read-out: PANC-1 Cell viability (% of controll), 17.3 μM, 72 h, dose–response, individual replicates) was 0%. The viability at 26 µM (PANC-1 cells; Homo sapiens, PANC-1, 72 h, read-out: PANC-1 Cell viability (% of controll), 26 μM, 72 h, dose–response, individual replicates) was 0%, the IC50 (PANC-1 cells; Homo sapiens, PANC-1, read-out: PANC-1 IC50 values, Mean, mean of independently fitted replicate IC50 values (Supplement S.6)) was 2.48 µM and the “Selectivity Index (SI) Fibroblast/PANC-1” value (PANC-1 cells; ratio of mean best-fit IC50 for primary fibroblasts and best-fit IC50 for PANC-1) was 1.3. The viability at 72 h, 0.7 µM ([1]; 0.7 μM) was 99%, the viability at 72 h, 1 µM ([1]; 1 μM) was 109% and the viability at 72 h, 2.3 µM ([1]; 2.3 μM) was 111%. It also gave a viability at 72 h, 3.4 µM ([1]; 3.4 μM) of 35%, a viability at 72 h, 5.1 µM ([1]; 5.1 μM) of 0% and a viability at 72 h, 7.7 µM ([1]; 7.7 μM) of 0%. For the same molecule, the viability at 72 h, 17.3 µM ([1]; 17.3 μM) was 0%, the viability at 72 h, 26 µM ([1]; 26 μM) was 0% and the “Primer fibroblast Cell viability (% of controll)” value ([2]; 0.7 μM, 72 h) was 107 % of controll. For the same molecule, the “Primer fibroblast Cell viability (% of controll)” value ([2]; 1 μM, 72 h) was 108 % of controll and 106 % of controll, the “Primer fibroblast Cell viability (% of controll)” value ([2]; 1.5 μM, 72 h) was 114 % of controll and 125 % of controll and 99 % of controll and the “Primer fibroblast Cell viability (% of controll)” value ([2]; 2.3 μM, 72 h) was 101 % of controll and 104 % of controll. The “Primer fibroblast Cell viability (% of controll)” value ([2]; 3.4 μM, 72 h) was 34 % of controll and 29 % of controll, the “Primer fibroblast Cell viability (% of controll)” value ([2]; 5.1 μM, 72 h) was 0 % of controll and the “Primer fibroblast Cell viability (% of controll)” value ([2]; 7.7 μM, 72 h) was 0 % of controll. For the same molecule, the “Primer fibroblast Cell viability (% of controll)” value ([2]; 17.3 μM, 72 h) was 0 % of controll, the “Primer fibroblast Cell viability (% of controll)” value ([2]; 26 μM, 72 h) was 0 % of controll and the IC50 ([2]; 72 h, read-out: IC50 Value ± SEM Primary Fibroblast, 72 h treatment, best-fit values, n = 3) was 3.2 ± 0.07 µM. It also gave an IC50 ([2]; read-out: Primary fibroblast IC50 values, Mean, mean of independently fitted replicate IC50 values (Supplement S.6), ONC201 value mathematically estimated from inflection point) of 3.23 µM.

Reference: article PMC11642016 (International Journal of Molecular Sciences, 2024)
